Test results from US20110224229A1, “Novel Crystalline Form” (AstraZeneca AB, priority 2010, published 2011).
“Also recorded” adds a separate entry of the source.

Legend:
[1] = Humidity interaction, Gravimetrical Vapour Sorption (GVS); format: physicochemical; conditions: for hygroscopicity, defined as the water uptake by a dried sample when the relative humidity is increased from 0% to 80%: 0% to 80% RH at 25° C.; for hygroscopicity (in words) / water uptake following exposure to 80% relative humidity (RH): GVS, 80% RH
Experimental: The gravimetric responses of test samples to changes in humidity were investigated using a TGA 5000 (TA Instruments) Gravimetrical Vapour Sorption (GVS). The temperature was held at 25° C. throughout the experiments. The relative humidity (RH) was raised in steps (of 5 or 10%) up to 90% RH and lowered back to 0% RH in two cycles. Each level of RH was held until the equilibrium condition (sample weight change<0.0005 wt % per 10 minutes) was reached. 5-10 mg of the test sample was placed in the cup and evaluated. The hygroscopicity was calculated as the relative change in weight of the sample between 0% RH at the start of the second cycle and 80% RH during the increase of humidity in the second cycle.
The hygroscopicity of a sample is dependent on factors in addition to the inherent properties of the pure solid form itself, for example the purity and the crystallinity of the sample will have some impact on the result.

[2] = Slurrying in water or solvents, hydrate/solvate formation; format: physicochemical
[3] = target: T1, Human Neutrophil Elastase (HNE) (Homo sapiens, UniProt P08246); test: Human Neutrophil Elastase Quenched-FRET Assay; format: biochemical; conditions: compound dissolved in DMSO; n=7; read-out: IC50 value for inhibition of human neutrophil elastase activity
T1 construct: Human Neutrophil Elastase (HNE) purified from serum; purchased Calbiochem 324681; host or cells: natural source
T1 sequence (P08246 30-267): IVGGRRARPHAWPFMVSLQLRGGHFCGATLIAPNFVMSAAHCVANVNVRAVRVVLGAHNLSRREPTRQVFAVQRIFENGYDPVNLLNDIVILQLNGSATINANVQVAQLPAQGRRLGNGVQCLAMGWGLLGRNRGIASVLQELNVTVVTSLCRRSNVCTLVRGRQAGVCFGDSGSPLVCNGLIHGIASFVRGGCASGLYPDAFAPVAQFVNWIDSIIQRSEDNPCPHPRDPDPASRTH
Experimental: The assay uses Human Neutrophil Elastase (HNE) purified from serum (Calbiochem art. 324681; Ref. Baugh, R. J. et al., 1976, Biochemistry. 15, 836-841). HNE was stored in 50 mM sodium acetate (NaOAc), 500 mM sodium chloride (NaCl), pH 5.5 with added 50% glycerol at −20° C. The protease substrate used was Elastase Substrate V Fluorogenic, MeOSuc-AAPV-AMC (Calbiochem art. 324740; Ref. Castillo, M. J. et al., 1979, Anal. Biochem. 99, 53-64). The substrate was stored in dimethyl sulfoxide (DMSO) at −20° C. The assay additions were as follows: Test compounds and controls were added to black 96-well flat-bottom plates (Greiner 655076), 1.0 μL in 100% DMSO, followed by 30 μL HNE in assay buffer with 0.01% Triton (trade mark) X-100 detergent. The assay buffer constitution was: 100 mM Tris(hydroxymethyl)aminomethane (TRIS) (pH 7.5) and 500 mM NaCl. The enzyme and the compounds were incubated at room temperature for 15 minutes. Then 30 μl substrate in assay buffer was added. The assay was incubated for 90 minutes at room temperature. The concentrations of HNE enzyme and substrate during the incubation were 0.17 nM and 100 μM, respectively. […] Fluorescence was measured on a Wallac EnVision instrument at settings: Excitation 380 nm, Emission 460 nm. IC50 values were determined using Xlfit curve fitting using model 203.

SMILES | hygroscopicity, defined as the water uptake by a dried sample when the relative humidity is increased from 0% to 80% [1] | hygroscopicity (in words) [1] | water uptake following exposure to 80% relative humidity (RH) [1] | solvate/hydrate formation when slurried in water, ethanol or acetonitrile ([2]; slurried in water, ethanol or acetonitrile, XRPD) | hydrate formation when slurried in water ([2]; slurried in water for 4 weeks) | IC50 [3] [nM]
CCNC(=O)c1nc(-c2ccnn2-c2ccc(C#N)cc2)c(C)n(-c2cccc(C(F)(F)F)c2)c1=O [Compound (I) Form A, 6-[2-(4-Cyano-phenyl)-2H-pyrazol-3-yl]-5-methyl-3-oxo-4-(3-trifluoromethyl-phenyl)-3,4-dihydro-pyrazine-2-carboxylic acid ethylamide Form A] | 1.6 % (w/w) | slightly hygroscopic; also recorded: non-hygroscopic | about 1.6 % by weight | forms variable, non-stoichiometric solvates with acetonitrile or ethanol and hydrates with water |  | 
CCNC(=O)c1nc(-c2ccnn2-c2ccc(C#N)cc2)c(C)n(-c2cccc(C(F)(F)F)c2)c1=O [Compound (I) Form B, 6-[2-(4-Cyano-phenyl)-2H-pyrazol-3-yl]-5-methyl-3-oxo-4-(3-trifluoromethyl-phenyl)-3,4-dihydro-pyrazine-2-carboxylic acid ethylamide Form B] | 0.08 % (w/w) | substantially non-hygroscopic | about 0.08 % by weight |  | did not form hydrates | 
CCNC(=O)c1nc(-c2ccnn2-c2ccc(C#N)cc2)c(C)n(-c2cccc(C(F)(F)F)c2)c1=O [Compound (I), 6-[2-(4-Cyano-phenyl)-2H-pyrazol-3-yl]-5-methyl-3-oxo-4-(3-trifluoromethyl-phenyl)-3,4-dihydro-pyrazine-2-carboxylic acid ethylamide] |  |  |  |  |  | 0.27
